Values of other authors, collected in patent publication US20150313913A1, “POSITIVE ALLOSTERIC MODULATORS OF THE GABA-A RECEPTOR IN THE TREATMENT OF AUTISM” (UNIVERSITY OF WASHINGTON THROUGH ITS CENTER FOR …, priority 2013, published 2015).
Read-outs that look alike come from different tables or passages of the source.

Test system: GABA-A receptor
Settings: cited from earlier work; for Effect at GABA-A receptor: Table 1, exemplary benzodiazepines
[1] = Table 4, exemplary non-BDZ GABA-A enhancers

## Clc1ccccc1C1=NCc2nnc(C3CCCCC3)n2-c2sc(Br)cc21 [Ciclotizolam]
  Effect at GABA-A receptor: Partial Agonist Low efficacy

## CC1COC2(c3ccccc3Cl)c3cc(Cl)ccc3NC(=O)CN12 (centres unmarked) [Mexazolam]
  Effect at GABA-A receptor: Agonist

## NC(=O)c1ncn2c1CN=C(c1ccccc1Br)c1cc(F)ccc1-2 [Imidazenil]
  Effect at GABA-A receptor: Partial agonist

## CC(=O)N(C)c1cc(-c2ccnc3c(C(=O)c4cccs4)cnn23)ccc1F [Lorediplon]
[1]
  Effect at GABA receptor: Agonist

## COc1nc2nc(-c3noc(C)n3)cn2c2c1CCCC2 [Taniplon]
[1]
  Effect at GABA receptor: Agonist

## COc1cc2c(cc1OC)C(c1cccc(Cl)c1)=NN=C(C)C2 [Girisopam]
  Effect at GABA-A receptor: Agonist

## O=C(O)C1N=C(c2ccccc2)c2cc([N+](=O)[O-])ccc2NC1=O (centres unmarked) [Nitrazepate]
  Effect at GABA-A receptor: Agonist

## CCOC(=O)C1N=C(c2ccccc2Cl)c2cc(Cl)ccc2NC1=O (centres unmarked) [Ethyl dirazepate]
  Effect at GABA-A receptor: Agonist

## O=C1CN2CCOC2(c2ccccc2F)c2cc(Br)ccc2N1 (centres unmarked) [Haloxazolam]
  Effect at GABA-A receptor: Agonist

## O=C1CN2CCOC2(c2ccccc2F)c2cc(Cl)ccc2N1CCO (centres unmarked) [Flutazolam]
  Effect at GABA-A receptor: Agonist

## COc1cc2c(cc1OC)C(c1ccc(N)cc1)=NN=C(C)C2 [Nerisopam]
  Effect at GABA-A receptor: Agonist

## O=c1c2cnc3ccccc3c2[nH]n1-c1ccc(Cl)cc1 [CGS-9896]
[1]
  Effect at GABA receptor: Agonist

## CCc1c(OC)nc2nc(C(=O)c3ccccc3)cn2c1C [Divaplon]
[1]
  Effect at GABA receptor: Partial agonist

## CCOC(=O)N1CCC(=O)N(c2ccccc2)c2cc(Cl)ccc21 [Arfendazam]
  Effect at GABA-A receptor: Partial agonist

## CN1C(=S)CN=C(c2ccccc2)c2cc(Cl)ccc21 [Sulazepam]
  Effect at GABA-A receptor: Agonist

## COC(=O)CC[C@@H]1N=C(c2ccccn2)c2cc(Br)ccc2-n2c(C)cnc21 [Remimazolam]
  Effect at GABA-A receptor: Agonist

## Cc1ccc(S(=O)(=O)N2CCc3ccccc3[C@@H]2[C@@H]2CCC(=O)O2)cc1 [ROD-188]
[1]
  Effect at GABA receptor: Agonist

## CN1C(=O)CC(=O)N(c2ccccc2)c2cc(C(F)(F)F)ccc21 [Triflubazam]
  Effect at GABA-A receptor: Agonist

## CCOCN1C2=C(C(=O)Nc3ccccc3F)C(=O)CCN2c2ccc(F)cc21 [RWJ-51204]
[1]
  Effect at GABA receptor: Partial agonist

## C#Cc1ccc2c(c1)C(c1ccccc1F)=N[C@H](C)c1c(C(=O)OCC)ncn1-2 [SH-053-R-CH3-2′F]
  Effect at GABA-A receptor: Agonist

## O=C1COC(N2CCN=C(c3ccccc3Cl)c3cc(Cl)ccc32)=N1 [Reclazepam]
  Effect at GABA-A receptor: Agonist

## CC(C)(C)C(=O)OC1N=C(c2ccccc2)c2cc(Cl)ccc2NC1=O (centres unmarked) [Pivoxazepam]
  Effect at GABA-A receptor: Agonist

## C=CCONC1=Nc2ccc(Cl)cc2C(c2ccccc2Cl)=NC1 [Uldazepam]
  Effect at GABA-A receptor: Agonist

## COc1c(-c2ccc(N)cc2)nc2ccc(NCc3cccc(C)c3)nn12 [GBLD-345]
[1]
  Effect at GABA receptor: Full agonist

## O=C1C(O)N=C(c2ccccc2F)c2cc(Cl)ccc2N1CCO (centres unmarked) [Doxefazepam]
  Effect at GABA-A receptor: Agonist

## CN1C(=O)CN=C(c2ccccc2F)c2cc(Cl)ccc21 [Fludiazepam]
  Effect at GABA-A receptor: Agonist

## CCCc1c(Cn2ccnc2-c2ncccc2F)ncn2nc(C)nc12 [Adipiplon]
Table 2, exemplary SS-PAMs
  Effect at GABA receptor: Partial agonist α3 selective

## O=c1cc2c(nn1-c1ccc(Cl)cc1)-c1ccccc1[S+]([O-])CC2 (centres unmarked) [Y-23684]
[1]
  Effect at GABA receptor: Partial agonist Non- selective

## CCc1ccc(-c2nc3ccc(C)cn3c2CN(C)C(=O)CC(C)C)cc1 [Necopidem]
[1]
  Effect at GABA receptor: Agonist

## Cn1c2ccc(F)cc2c2c(C(=O)N3CCCC3)cn(-c3ccccc3)c(=O)c21 [SL-651,498]
Table 2, exemplary SS-PAMs
  Effect at GABA receptor: Full agonist α2,3 selective

## O=C1CCNc2ccc(Cl)cc2N1c1ccccc1 [Lofendazam]
  Effect at GABA-A receptor: Agonist

## C[C@@H]1N=C(c2ccccc2Cl)c2cc([N+](=O)[O-])ccc2NC1=O [Meclonazepam]
  Effect at GABA-A receptor: Agonist
